Assay results as given in PubChem BioAssay AID248 (DTP/NCI, 2004).
“And” between values parts separate entries of the source, which are not always exact repeats. Equal entries are not always repeated. Toxic doses and inconclusive results are not listed.

System: L1210 leukemia ip in BDF1 mice, survival T/C
Test: NCI In Vivo Anticancer Drug Screen. Data for tumor model L1210 Leukemia (intraperitoneal) in B6D2F1 (BDF1) mice
Conditions: endpoint: mean survival time, higher = longer survival
Outline: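 Value reflects the ratio of survival in compound-treated mice to survival in vehicle-treated controls, with both groups carrying the same transplanted tumor.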

[1] = dose: 6.25 mg/kg/injection, schedule: Q01DX009 (ip), vehicle: saline with Tween-80
[2] = dose: 12.5 mg/kg/injection, schedule: Q01DX009 (ip), vehicle: saline with Tween-80
[3] = dose: 100.0 mg/kg/injection, schedule: Q01DX001 (ip), vehicle: Klucel (hydroxypropylcellulose) (HPC)
[4] = dose: 200.0 mg/kg/injection, schedule: Q01DX001 (ip), vehicle: Klucel (hydroxypropylcellulose) (HPC)
[5] = dose: 400.0 mg/kg/injection, schedule: Q01DX001 (ip), vehicle: Klucel (hydroxypropylcellulose) (HPC)
[6] = dose: 100.0 mg/kg/injection, schedule: Q01DX009 (ip), vehicle: Klucel (hydroxypropylcellulose) (HPC)
[7] = dose: 100.0 mg/kg/injection, schedule: Q04DX003 (ip), vehicle: Klucel (hydroxypropylcellulose) (HPC)
[8] = dose: 200.0 mg/kg/injection, schedule: Q04DX003 (ip), vehicle: Klucel (hydroxypropylcellulose) (HPC)
[9] = dose: 400.0 mg/kg/injection, schedule: Q04DX003 (ip), vehicle: Klucel (hydroxypropylcellulose) (HPC)
[10] = dose: 100.0 mg/kg/injection, schedule: Q01DX009 (ip), vehicle: saline with Tween-80
[11] = dose: 200.0 mg/kg/injection, schedule: Q01DX009 (ip), vehicle: saline with Tween-80
[12] = dose: 100.0 mg/kg/injection, schedule: Q01DX009 (ip), vehicle: saline
[13] = dose: 200.0 mg/kg/injection, schedule: Q01DX009 (ip), vehicle: saline
[14] = dose: 100.0 mg/kg/injection, schedule: Q01DX001 (ip), vehicle: saline
[15] = dose: 200.0 mg/kg/injection, schedule: Q01DX001 (ip), vehicle: saline
[16] = dose: 400.0 mg/kg/injection, schedule: Q01DX001 (ip), vehicle: saline
[17] = dose: 6.25 mg/kg/injection, schedule: Q01DX009 (ip), vehicle: Klucel (hydroxypropylcellulose) (HPC)
[18] = dose: 12.5 mg/kg/injection, schedule: Q01DX009 (ip), vehicle: Klucel (hydroxypropylcellulose) (HPC)
[19] = dose: 25.0 mg/kg/injection, schedule: Q01DX009 (ip), vehicle: Klucel (hydroxypropylcellulose) (HPC)
[20] = dose: 50.0 mg/kg/injection, schedule: Q01DX009 (ip), vehicle: Klucel (hydroxypropylcellulose) (HPC)

CCCCCCCCCCCCOCC[N+](C/C=C/c1ccccc1)(CCO)CCO
T/C [1]: 93 % of control | T/C [2]: 95 % of control

CC(=O)c1ccc(OCC(=O)O)cc1
T/C [3]: 97 % of control | T/C [4]: 97 % of control | T/C [5]: 101 % of control

S=C(NCC1CCCO1)Nc1cccc2ccccc12 (stereo not drawn)
T/C (dose: 100.0 mg/kg/injection, schedule: Q04DX002 (ip), vehicle: Klucel (hydroxypropylcellulose) (HPC)): 95 % of control | T/C (dose: 200.0 mg/kg/injection, schedule: Q04DX002 (ip), vehicle: Klucel (hydroxypropylcellulose) (HPC)): 91 % of control | T/C (dose: 400.0 mg/kg/injection, schedule: Q04DX002 (ip), vehicle: Klucel (hydroxypropylcellulose) (HPC)): 95 % of control

O=C(O)c1ccccc1CC(O)(c1ccccc1)C(O)(Cc1ccccc1C(=O)O)c1ccccc1 (stereo not drawn)
T/C (dose: 100.0 mg/kg/injection, schedule: Q01DX001 (ip), vehicle: carboxymethylcellulose (CMC)): 94 % of control | T/C (dose: 200.0 mg/kg/injection, schedule: Q01DX001 (ip), vehicle: carboxymethylcellulose (CMC)): 102 % of control | T/C (dose: 400.0 mg/kg/injection, schedule: Q01DX001 (ip), vehicle: carboxymethylcellulose (CMC)): 96 % of control

C[S+](C)(=O)/C=C(\[O-])Nc1ccccc1
T/C [6]: 101 % of control | T/C [7]: 101 % of control | T/C (dose: 200.0 mg/kg/injection, schedule: Q01DX009 (ip), vehicle: Klucel (hydroxypropylcellulose) (HPC)): 92 % of control | T/C [8]: 97 % of control | T/C (dose: 400.0 mg/kg/injection, schedule: Q01DX009 (ip), vehicle: Klucel (hydroxypropylcellulose) (HPC)): 97 % of control | T/C [9]: 103 % of control

O=C(COCC(=O)N/N=C/c1ccc(Cl)c(Cl)c1)N/N=C/c1ccc(Cl)c(Cl)c1
T/C [1]: 92 % of control | T/C [2]: 90 % of control | T/C (dose: 25.0 mg/kg/injection, schedule: Q01DX009 (ip), vehicle: saline with Tween-80): 89 % of control | T/C (dose: 200.0 mg/kg/injection, schedule: Q04DX003 (ip), vehicle: saline with Tween-80): 86 % of control

OC(C1CCCCC1)(C1CCCCC1)C1CCCCC1
T/C [10]: 101 % of control | T/C [7]: 91 % of control | T/C [11]: 96 % of control | T/C [8]: 92 % of control | T/C (dose: 400.0 mg/kg/injection, schedule: Q01DX009 (ip), vehicle: saline with Tween-80): 96 % of control | T/C [9]: 96 % of control

CC(C)(Oc1ccc(Cl)cc1)C(=O)NC(N)=O
T/C (dose: 50.0 mg/kg/injection, schedule: Q01DX009 (ip), vehicle: saline): 95 % of control | T/C [12]: 113 % of control | T/C [13]: 103 % of control

CCSC(=O)OCn1ncc2cc([N+](=O)[O-])ccc21
T/C [14]: 112 % of control | T/C [15]: 91 % of control | T/C [16]: 103 % of control

CC(C#N)NC(=O)NC(C)C(N)=O (stereo not drawn)
T/C [14]: 107 % of control | T/C [15]: 107 % of control | T/C [16]: 97 % of control

NNc1nc2ccccc2s1
T/C [17]: 90 % of control | T/C [18]: 100 % of control | T/C [19]: 94 % of control | T/C [20]: 91 % of control

CCN(CC)CCC(O)c1ccc2c(c1)[nH]c1ccccc12 (stereo not drawn)
T/C (dose: 75.0 mg/kg/injection, schedule: Q01DX001 (ip), vehicle: carboxymethylcellulose (CMC)): 97 % of control | T/C (dose: 150.0 mg/kg/injection, schedule: Q01DX001 (ip), vehicle: carboxymethylcellulose (CMC)): 103 % of control

COP(=O)(OCCCCCl)C(Cl)(Cl)Cl (stereo not drawn)
T/C [14]: 102 % of control | T/C [15]: 102 % of control | T/C [16]: 104 % of control

CNCc1ccccc1C(O)c1ccc(Cl)cc1 (stereo not drawn)
T/C (dose: 3.12 mg/kg/injection, schedule: Q01DX009 (ip), vehicle: Klucel (hydroxypropylcellulose) (HPC)): 98 % of control | T/C [17]: 96 % of control | T/C [18]: 96 % of control | T/C [19]: 94 % of control | T/C (dose: 25.0 mg/kg/injection, schedule: Q04DX003 (ip), vehicle: Klucel (hydroxypropylcellulose) (HPC)): 97 % of control and 98 % of control | T/C [20]: 102 % of control | T/C (dose: 50.0 mg/kg/injection, schedule: Q04DX003 (ip), vehicle: Klucel (hydroxypropylcellulose) (HPC)): 94 % of control | T/C [6]: 86 % of control | T/C [7]: 104 % of control | T/C [8]: 122 % of control

Oc1ccccc1SSc1ccccc1O
T/C (dose: 50.0 mg/kg/injection, schedule: Q01DX009 (ip), vehicle: saline with Tween-80): 100 % of control | T/C [10]: 104 % of control | T/C [11]: 103 % of control

COc1ccc(-c2c(CO)cc(OC)c(OC)c2OC)c(CO)c1
T/C (dose: 75.0 mg/kg/injection, schedule: Q01DX001 (ip), vehicle: saline): 99 % of control | T/C (dose: 150.0 mg/kg/injection, schedule: Q01DX001 (ip), vehicle: saline): 99 % of control | T/C (dose: 300.0 mg/kg/injection, schedule: Q01DX001 (ip), vehicle: saline): 92 % of control

COc1ccc2nc(NC(=O)NCCCl)sc2c1
T/C [3]: 90 % of control | T/C [4]: 95 % of control | T/C [5]: 91 % of control

C[C@@H]1C[C@@]2(C)[C@@H](CC[C@@H]3[C@@H]2CC[C@]2(C)[C@@H](O)CC[C@@H]32)C[C@@H]1O
T/C (dose: 62.5 mg/kg/injection, schedule: Q01DX015 (sc), vehicle: steriod suspending solution): 100 % of control | T/C (dose: 125.0 mg/kg/injection, schedule: Q01DX015 (sc), vehicle: steriod suspending solution): 94 % of control | T/C (dose: 250.0 mg/kg/injection, schedule: Q01DX015 (sc), vehicle: steriod suspending solution): 102 % of control | T/C (dose: 500.0 mg/kg/injection, schedule: Q01DX015 (sc), vehicle: steriod suspending solution): 94 % of control

CCCCCCCCCCCCCCCCCCOCCCCCCCCCCCC
T/C (dose: 100.0 mg/kg/injection, schedule: Q01DX001 (ip), vehicle: other): 97 % of control | T/C (dose: 200.0 mg/kg/injection, schedule: Q01DX001 (ip), vehicle: other): 92 % of control | T/C (dose: 400.0 mg/kg/injection, schedule: Q01DX001 (ip), vehicle: other): 93 % of control

O=[N+]([O-])c1ccc2c(N=Nc3ccc4ccccc4c3O)c(O)cc(S(=O)(=O)O)c2c1
T/C (dose: 50.0 mg/kg/injection, schedule: Q04DX003 (ip), vehicle: carboxymethylcellulose (CMC)): 94 % of control | T/C (dose: 100.0 mg/kg/injection, schedule: Q04DX003 (ip), vehicle: carboxymethylcellulose (CMC)): 93 % of control | T/C (dose: 200.0 mg/kg/injection, schedule: Q04DX003 (ip), vehicle: carboxymethylcellulose (CMC)): 102 % of control

COC(=O)C1=C(C(=O)OC)C2(O)c3ccccc3C1c1ccccc12
T/C [12]: 100 % of control | T/C [13]: 93 % of control | T/C (dose: 400.0 mg/kg/injection, schedule: Q01DX009 (ip), vehicle: saline): 88 % of control

C=CCNC(=S)N(CCC#N)C1CCCCC1
T/C (dose: 100.0 mg/kg/injection, schedule: Q04DX002 (ip), vehicle: saline with Tween-80): 101 % of control | T/C (dose: 200.0 mg/kg/injection, schedule: Q04DX002 (ip), vehicle: saline with Tween-80): 90 % of control | T/C (dose: 400.0 mg/kg/injection, schedule: Q04DX002 (ip), vehicle: saline with Tween-80): 93 % of control

CCCCn1ccnc1C
T/C (dose: 6.25 mg/kg/injection, schedule: Q04DX003 (ip), vehicle: saline): 113 % of control and 90 % of control | T/C (dose: 12.5 mg/kg/injection, schedule: Q04DX003 (ip), vehicle: saline): 93 % of control and 107 % of control | T/C (dose: 25.0 mg/kg/injection, schedule: Q04DX003 (ip), vehicle: saline): 113 % of control and 265 % of control and 89 % of control | T/C (dose: 50.0 mg/kg/injection, schedule: Q04DX003 (ip), vehicle: saline): 106 % of control and 289 % of control

Clc1ccc(C(c2ccc(Cl)cc2)C(Cl)Cl)cc1
T/C [7]: 98 % of control | T/C [8]: 98 % of control | T/C [9]: 98 % of control

Cc1cccc(SC(=O)Nc2cc([N+](=O)[O-])ccc2C)c1
T/C [7]: 92 % of control | T/C [8]: 98 % of control | T/C [9]: 97 % of control

CCCc1nnnn1C12CC3CC(CC(C3)C1)C2
T/C [14]: 102 % of control | T/C [15]: 100 % of control | T/C [16]: 93 % of control
